# Values of other authors as cited in patent US5482954A, “Signal transduction inhibitor triazole and diazole compounds” (priority 1994, dated 1996).
# System: production of PGE2 and PGF2a
# Settings: Honn, et al.; cited from earlier work
compound,measurement,value
COc1ccc2c(c1)c(CC(=O)O)c(C)n2C(=O)c1ccc(Cl)cc1 [indomethacin],inhibition of phorbol ester-stimulated production of PGE2 and PGF2a,selectively inhibited
